Test system: Hep-G2 cells
Experiment: Inhibition of cell proliferation of Hep-G2 cells (intracellular ATP, CellTiterGlo)
Type: cell-based
Details: Homo sapiens, HepG2, 72 hours incubation, ATP content, read-out: IC 50 (μM)/HEP G2
Experimental: The antiproliferative activity of product 3 was determined by measuring the inhibition of cell proliferation of Hep-G2 cells. The cells are subcultured in a cell culture medium at a concentration of 1000 cells per well, and incubated for 4 hours at 37° C. and 5% CO2.
Medium used for the Hep-G2 cell culture: Dubelcco's modified Eagle's medium/Ham mixture F12 (Gibco); NEAA (10%; nonessential amino acids, Gibco); sodium pyruvate (1%, Gibco); L-glutamine (1%, Gibco); fetal calf serum (5%; PAA).
After 4 hours, the test products dissolved in a DMSO/cell culture medium mixture are added at various concentrations and the resulting mixtures are incubated for 72 hours at 37° C. and 5% CO2. The intracellular ATP content was measured using the CellTiterGlo test reagent (Promega).

IC50 [µM]	SMILES
7	CO[C@@H](C(=O)N[C@H]1CCCCNC1=O)[C@H](O)[C@@H](O)[C@H](O)/C=C/C(C)C [Bengamide E]
0.02	CCC(C)/C=C/[C@@H](O)[C@H](O)[C@@H](O)[C@@H](OC)C(=O)N[C@H]1CCCCN(Cc2ccccc2)C1=O (stereo partly drawn) [Example 3, N-[(S)-1-(4-benzyl)-2-oxoperhydroazepin-3-yl]-(E)-(2R,3R,4S,5R)-3,4,5-trihydroxy-2-methoxy-8-methyldec-6-enamide]
